Where only a bound is given, the exact number is not on record here.

Test [1] deals with human TDO (GL261 cells transfected to over-express full length human TDO) (Homo sapiens (Human), UniProt P48775). Kind of test: Cell-based assay for TDO inhibition. The conditions noted are these: GL261 cells over-expressing human TDO, 24 h; read-out: Cellular IC50. The method, then:
Culture supernatant from each well was then transferred into a fresh, flat-bottomed 96-well plate, and kynurenine content was determined as described above for the IDO1 assay, and the concentration that inhibited 50% cellular enzyme activity was calculated.

Test [2] concerns the target human IDO1 (LLTC-hIDO1 cells) (Homo sapiens, UniProt P14902). Nature of the test: Cell-based assay for IDO1 inhibition (kynurenine in supernatant). The conditions noted are these: IDO1-transfected Lewis Lung carcinoma cells, 24 h; read-out: Cellular IC50. On the procedure:
Culture supernatant from each well was then transferred into a fresh, flat-bottomed 96-well plate, mixed with trichloroacetic acid (10% final concentration) and incubated for 20 min at 60° C. […] The absorbance of each well was read at 480 nm, and the concentration that inhibited 50% cellular enzyme activity was calculated.

In test [3] the test system is Lewis Lung carcinoma cells transfected to express IDO1 (LLTC-hIDO1). Kind of test: MTT cell viability in the cellular IDO1 assay. It counts as cell-based. The conditions noted are these: same experiment as cellular IDO1 assay. The method, then: The viability of the cells in each well in the same experiment was determined using the 3-(4,5-dimethylthiazolyl-2-yl)-2,5-diphenyltetrazolium bromide (MTT) colourimetric assay. After the removal of the supernatant for determination of IDO1 inhibition, the cells were incubated with MTT (500 μg/mL) until crystal formation was observed. […] DMSO (100 μL/well) was added to dissolve the crystals and then the absorbance in each well was measured at 570 nm. Cell viability in each well was expressed as a percentage of untreated controls. Triplicate cultures were used for all experiments unless stated otherwise.

Test [4] concerns GL261 cells transfected to over-express human TDO. Nature of the test: MTT cell viability in the cellular TDO assay. It counts as cell-based. The conditions noted are these: same experiment as cellular TDO assay. The method, then: The viability of the cells in each well in the same experiment was determined using the 3-(4,5-dimethylthiazolyl-2-yl)-2,5-diphenyltetrazolium bromide (MTT) colourimetric assay.

The target in test [5] is Recombinant human IDO1 (rhIDO1) (Homo sapiens (Human), UniProt P14902). Nature of the test: Enzymatic assay for IDO1 activity. It counts as biochemical. The conditions noted are these: rhIDO1 9 nM, 80 μM TRP, 37° C. 30 min. The method, then: Recombinant human IDO1 (rhIDO1) was expressed and purified from cultures of EC538 strain of E. coli transformed with pREP4 and pQE9-IDO plasmid. Reaction mixes were set up in 384-well microplates containing 50 mM phosphate buffer, 10 mM ascorbic, 10 μM methylene blue, 100 μg/mL catalase, 80 μM TRP, 0.01% Tween 20 (v/v) mixed with rhIDO1 (15 μL) at a final concentration of 9 nM in a total volume of 30 μL assay medium. The plates were incubated at 37° C. for 30 min, and the enzymatic reaction was terminated by adding piperidine (200 mM) and heated at 65° C. for 20 min. Fluorescence intensity was read at λex 400 nm and λem 500 nm. Test compounds were dissolved in 100% DMSO and pre-diluted in assay medium prior to adding rhIDO1. IDO1 inhibition (%) was calculated as
Chain of Recombinant human IDO1 (rhIDO1) (P14902 whole entry): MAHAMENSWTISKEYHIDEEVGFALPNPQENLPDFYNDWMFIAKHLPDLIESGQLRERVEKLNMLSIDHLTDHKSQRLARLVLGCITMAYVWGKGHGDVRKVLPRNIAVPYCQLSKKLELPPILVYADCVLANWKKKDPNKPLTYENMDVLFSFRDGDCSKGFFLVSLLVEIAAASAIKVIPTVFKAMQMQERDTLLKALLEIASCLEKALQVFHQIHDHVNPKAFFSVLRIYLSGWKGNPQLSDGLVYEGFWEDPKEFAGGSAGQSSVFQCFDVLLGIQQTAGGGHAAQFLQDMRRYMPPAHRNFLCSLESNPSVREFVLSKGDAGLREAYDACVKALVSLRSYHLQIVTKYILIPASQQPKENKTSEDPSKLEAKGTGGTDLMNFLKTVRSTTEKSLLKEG
[formula] All experiments were carried out in triplicates, and statistical Analyses were conducted in Prism v5 (Graphpad Software, Inc., La Jolla, Calif., USA). Cell-Based Assay for IDO1 Inhibition

Chain of human TDO (GL261 cells transfected to over-express full length human TDO) (P48775 whole entry): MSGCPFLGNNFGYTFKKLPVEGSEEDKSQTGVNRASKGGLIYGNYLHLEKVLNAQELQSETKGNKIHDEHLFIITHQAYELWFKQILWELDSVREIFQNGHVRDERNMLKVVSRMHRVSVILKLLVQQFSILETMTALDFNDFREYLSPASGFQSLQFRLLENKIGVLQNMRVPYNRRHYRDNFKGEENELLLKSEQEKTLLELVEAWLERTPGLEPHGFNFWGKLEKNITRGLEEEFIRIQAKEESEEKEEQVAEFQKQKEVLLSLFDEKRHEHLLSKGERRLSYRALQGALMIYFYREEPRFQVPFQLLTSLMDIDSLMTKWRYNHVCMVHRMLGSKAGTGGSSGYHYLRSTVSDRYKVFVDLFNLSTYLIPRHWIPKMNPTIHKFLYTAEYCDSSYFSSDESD

The IC50 is the concentration at which inhibition is half-maximal. As to `Cc1nc2onc(N)c2c(C)c1Cl` [Compound 3, 5-Chloro-4,6-dimethylisoxazolo[5,4-b]pyridin-3-amine], the IC50 in test [1] was 1 to 10 µM; in test [2], less than 1 µM; in test [3], more than 100 µM; in test [4] it was more than 100 µM; in test [5], 1 to 10 µM.
Take `Nc1noc2nc(NC3CC3)c(F)cc12` [Compound 56, N6-Cyclopropyl-5-fluoroisoxazolo[5,4-b]pyridine-3,6-diamine]: the IC50 in test [2], in test [3] and in test [5] was more than 100 µM in each case.
Turning to `CN(C)c1nc2onc(N)c2cc1F` [Compound 57, 5-Fluoro-N6,N6-dimethylisoxazolo[5,4-b]pyridine-3,6-diamine], the IC50 in test [2], in test [3] and in test [5] was more than 100 µM in each case.
On to `Nc1noc2nc(-c3ccco3)ccc12` [Compound 58, 6-(Furan-2-yl)isoxazolo[5,4-b]pyridin-3-amine], for which the IC50 in test [2] was 1 to 10 µM; in test [3] it was more than 100 µM; in test [5] it was more than 100 µM.
In the case of `Nc1noc2nc3c(cc12)CCC3` [Compound 59, 6,7-Dihydro-5H-cyclopenta[b]isoxazolo[4,5-e]pyridin-3-amine], the IC50 in test [2], in test [3] and in test [5] was more than 100 µM in each case.
On to `CSc1ncc2c(N)noc2n1` [Compound 63, 6-(Methylthio)isoxazolo[5,4-d]pyrimidin-3-amine], for which the IC50 is 10 to 100 µM in test [2], more than 100 µM in test [3] and more than 100 µM in test [5].
Take `Cc1ncc2c(N)noc2n1` [Compound 64, 6-Methylisoxazolo[5,4-d]pyrimidin-3-amine]: the values for the IC50 in test [2], in test [3] and in test [5] were 10 to 100 µM, more than 100 µM and more than 100 µM, respectively.
On to `CSc1nc(-c2ccccc2)nc2onc(N)c12` [Compound 65, 4-(Methylthio)-6-phenylisoxazolo[5,4-d]pyrimidin-3-amine], for which the IC50 in test [2], in test [3] and in test [5] was more than 100 µM each time.
For `Nc1noc2nc(Cl)c(Cl)cc12` [Compound 67, 5,6-Dichloroisoxazolo[5,4-b]pyridin-3-amine], the IC50 is 1 to 10 µM in test [2], more than 100 µM in test [3] and less than 1 µM in test [5].
Take `Nc1noc2nc(Cl)cc(C(F)(F)F)c12` [Compound 68, 6-Chloro-4-(trifluoromethyl)isoxazolo[5,4-b]pyridin-3-amine]: the IC50 is 10 to 100 µM in test [2], more than 100 µM in test [3] and more than 100 µM in test [5].
Take `COCC#Cc1cnc2onc(N)c2c1` [Compound 69, 5-(3-Methoxyprop-1-yn-1-yl)isoxazolo[5,4-b]pyridin-3-amine]: the IC50 in test [2] was 10 to 100 µM; in test [3] it was more than 100 µM; in test [5], more than 100 µM.
In the case of `COc1ccc(-c2ccc3c(N)noc3n2)cc1` [Compound 70, 6-(4-Methoxyphenyl)isoxazolo[5,4-b]pyridin-3-amine], the IC50 in test [2], in test [3] and in test [5] was more than 100 µM each time.
For the molecule `Nc1noc2nc(-c3ccc(F)cc3)ccc12` [Compound 71, 6-(4-Fluorophenyl)isoxazolo[5,4-b]pyridin-3-amine], the IC50 in test [2] is 10 to 100 µM; in test [3], more than 100 µM; in test [5], more than 100 µM.
In the case of `Nc1noc2nc(-c3ccc(Cl)cc3Cl)ccc12` [Compound 72, 6-(2,4-Dichlorophenyl)isoxazolo[5,4-b]pyridin-3-amine], the IC50 in test [2], in test [3] and in test [5] was more than 100 µM in each case.
For `Nc1noc2nc(-c3ccc(F)cc3F)ccc12` [Compound 73, 6-(2,4-Difluorophenyl)isoxazolo[5,4-b]pyridin-3-amine], the results for the IC50 in test [2], in test [3] and in test [5] were 10 to 100 µM, more than 100 µM and more than 100 µM, respectively.
On to `Nc1noc2nc(-c3cccs3)ccc12` [Compound 74, 6-(2-Thienyl)isoxazolo[5,4-b]pyridin-3-amine], for which the IC50 in test [2] was 1 to 10 µM; in test [3], more than 100 µM; in test [5] it was more than 100 µM.
For the molecule `Cn1nccc1-c1ccc2c(N)noc2n1` [Compound 75, 6-(1-Methyl-1H-pyrazol-5-yl)isoxazolo[5,4-b]pyridin-3-amine], the IC50 in test [2], in test [3] and in test [5] was more than 100 µM each time.
For the molecule `CN(C)CCCOc1ccc2c(N)noc2n1` [Compound 76, 6-(3-(Dimethylamino)propoxy)isoxazolo[5,4-b]pyridin-3-amine], the IC50 in test [2], in test [3] and in test [5] was more than 100 µM each time.
With `CN(C)CCOc1ccc2c(N)noc2n1` [Compound 77, 6-(2-(Dimethylamino)ethoxy)isoxazolo[5,4-b]pyridin-3-amine], the IC50 in test [2], in test [3] and in test [5] was more than 100 µM each time.
Regarding `Nc1noc2nc(OCCN3CCOCC3)ccc12` [Compound 78, 6-(2-Morpholinoethoxy)isoxazolo[5,4-b]pyridin-3-amine], the IC50 in test [2], in test [3] and in test [5] was more than 100 µM in each case.
`CSc1ccc2c(N)noc2n1` [Compound 79, 6-(Methylthio)isoxazolo[5,4-b]pyridin-3-amine]: the IC50 in test [2] was 1 to 10 µM; in test [3], more than 100 µM; in test [5], 10 to 100 µM.
As to `CS(=O)(=O)c1ccc2c(N)noc2n1` [Compound 80, 6-(methylsulfonyl)isoxazolo[5,4-b]pyridin-3-amine], the IC50 was 10 to 100 µM in test [2], more than 100 µM in test [3] and more than 100 µM in test [5].
With `Nc1noc2nc(C(=O)O)ccc12` [Compound 81, 3-Aminoisoxazolo[5,4-b]pyridine-6-carboxylic acid], the IC50 in test [2], in test [3] and in test [5] was more than 100 µM throughout.
With `COC(=O)c1ccc2c(N)noc2n1` [Compound 82, Methyl 3-aminoisoxazolo[5,4-b]pyridine-6-carboxylate], the IC50 in test [2] is 10 to 100 µM; in test [3], more than 100 µM; in test [5] it was more than 100 µM.
In the case of `Nc1noc2nc(Oc3ccccc3Cl)ccc12` [Compound 84, 6-(2-Chlorophenoxy)isoxazolo[5,4-b]pyridin-3-amine], the IC50 in test [2] was 10 to 100 µM; in test [3], more than 100 µM; in test [5], 10 to 100 µM.
Turning to `Nc1noc2nc(Oc3ccccc3OC(F)(F)F)ccc12` [Compound 87, 6-(2-(Trifluoromethoxy)phenoxy)isoxazolo[5,4-b]pyridin-3-amine], the IC50 is 10 to 100 µM in test [2], more than 100 µM in test [3] and more than 100 µM in test [5].
For the molecule `Nc1noc2nc(Oc3cccc(OC(F)(F)F)c3)ccc12` [Compound 88, 6-(3-(Trifluoromethoxy)phenoxy)isoxazolo[5,4-b]pyridin-3-amine], the IC50 in test [2] was 10 to 100 µM; in test [3], more than 100 µM; in test [5], more than 100 µM.
On to `COc1ccccc1Oc1ccc2c(N)noc2n1` [Compound 90, 6-(2-Methoxyphenoxy)isoxazolo[5,4-b]pyridin-3-amine], for which the figures for the IC50 in test [2], in test [3] and in test [5] were 10 to 100 µM, more than 100 µM and more than 100 µM, respectively.
As to `Nc1noc2nc(Oc3cccc(C(F)(F)F)c3)ccc12` [Compound 93, 6-(3-(Trifluoromethyl)phenoxy)isoxazolo[5,4-b]pyridin-3-amine], the IC50 in test [2] is 10 to 100 µM; in test [3], more than 100 µM; in test [5], more than 100 µM.
Regarding `COc1cccc(Nc2ccc3c(N)noc3n2)c1` [Compound 95, N^6-(3-Methoxyphenyl)isoxazolo[5,4-b]pyridine-3,6-diamine], the IC50 in test [2] is 1 to 10 µM; in test [3], more than 100 µM; in test [5], more than 100 µM.
For `COc1ccc(Nc2ccc3c(N)noc3n2)cc1` [Compound 96, N^6-(4-Methoxyphenyl)isoxazolo[5,4-b]pyridine-3,6-diamine], the IC50 in test [2], in test [3] and in test [5] was more than 100 µM throughout.

These data come from US10888567B2, “Inhibitors of tryptophan dioxygenases (IDO1 and TDO) and their use in therapy” (AUCKLAND UNISERVICES LIMITED, priority 2014, dated 2021).
